A short description of the data set: Plasma stability, mouse plasma. It counts as in vitro ADME. As to conditions: 37° C., 0-4 hours, LC-MS/MS, "Very long" = no significant degradation found in the test (4 hours). Here is the method: 1. Preparation of 50 mM Phosphate Buffer (50 mM Sodium Phosphate and 70 mM NaCl):
5.750 g of Na2HPO4, 1.141 g of NaH2PO4 and 4.095 g of NaCl (Shanghai Titan) were weighed and dissolved in 1000 mL of ultrapure water and the pH was adjusted to 7.4. The prepared phosphate buffer was stored in the refrigerator at 4° C., valid for one week.
2. Preparation of Compound Stock Solution:
1) 5 mg/mL test compound: 5 mg of compound was weighed and dissolved in 1 mL of DMSO.
2) 20 mM control: 2.728 mg of nococaine was dissolved in 0.5 mL of DMSO. 3.878 mg of fenfluramide was dissolved in 0.5 mL of DMSO (Amresco).
3. Preparation of Experimental Plasma:
The frozen plasma (human: Shanghai ChemPartner, Rat, Mouse: Shanghai Xipuer-Beikai, Dog, Monkey: Suzhou Xishan Zhongke) was taken out from the −80° C. refrigerator, immediately placed in a 37° C. water bath, and thawn with gentle shaking. The thawed plasma was poured into a centrifuge tube, and centrifuged at 3000 rpm for 8 minutes. The supernatant was collected for the experiment. The pH of the plasma was measured with a pH meter (METTLER TOLEDO), and only the plasma with a pH between 7.4 and 8 was used for the experiment. The plasma was placed on an ice bath for later use.
4. Preparation of the Dosing Solution:
1) 125 μg/mL test compound solution: 5 μL of 5 mg/mL test compound (see step 2) was added to 195 μL DMSO; 500 μM control solution: 20 mM control stock solution (see step 2) was added to 195 μL DMSO.
2) 0.5% BSA phosphate buffer solution: 0.05 g of BSA was added to 10 mL of phosphate buffer (see step 1).
3) 5 μg/mL test compound dosing solution: 40 μL of 125 μg/mL test compound solution was added to 960 μL of 0.5% BSA phosphate buffer solution, shaken and mixed evenly, and the dosing solution was placed in a 37° C. water bath and preheated for 5 minutes.
20 μM control dosing solution: 40 μL of 500 μM control solution was added to 960 μL of 0.5% BSA phosphate buffer solution, shaken and mixed evenly, and the dosing solution was placed in a 37° C. water bath and preheated for 5 minutes.
5. 10 μL of 5 μg/mL test compound and 20 μM control solution were added to the wells of the 96-well plate set at different time points (0 minute, 1 hour, 2 hours and 4 hours). The number of duplicate samples was 3.
6. 500 μL of ACN (IS) containing 5% FA was added to the wells set at 0 minute. 90 μL of plasma was then added thereto, mixed evenly, sealed with the film and stored at 4° C. (the number of duplicates was 3).
7. 90 μL of plasma was added to the wells set at 1 hour, 2 hours and 4 hours (the number of replicates was 3), followed by timing (the final concentration of the test compound was 500 ng/mL, and that of the control was 2 μM).
9. All samples (0 minutes, 1 hour, 2 hours, and 4 hours) at different time points on the 96-well plate were placed on a shaker (IKA, MTS 2/4) and shaken at 600 rpm for 60 minutes. The samples were then centrifuged for 15 minutes on a centrifuge machine (Thermo Multifuge×3R) at 5594×g.
10. 150 μL of the supernatant was taken out from the centrifuged sample and sent to LC-MS/MS for analysis (conventional peptide LC-MS/MS analysis).

Square brackets hold non-standard residues; d marks the D form. Peptide text beside a SMILES is read from it. * marks the point of attachment. Hydrocinnamoyl = O=C(CCc1ccccc1)*; Tic = O=C(O)[C@@H]1Cc2ccccc2CN1; NMeL = CN[C@@H](CC(C)C)C(=O)O

Consider `CC(C)C[C@H](NC(=O)[C@H](Cc1ccccc1)NC(=O)[C@H](N)Cc1ccc(O)cc1)C(=O)N1CCC[C@H]1C(=O)N[C@H](CO)C(=O)N[C@@H](CCC(N)=O)C(=O)N[C@@H](Cc1ccccc1)C(=O)N[C@H](C)C(=O)N1Cc2ccccc2C[C@H]1C(=O)N[C@@H](CO)C(=O)O` [YW-3, (D-Tyr)-Phe-Leu-Pro-(D-Ser)-Gln-Phe-(D-Ala)-Tic-Ser, reference compound] (H-[dY]FLP[dS]QF[dA][Tic]S-OH), for which the half-life at 500 ng/mL (read-out: Mouse plasma (T1/2 (h)) (converted)) was 35.4 h.

In the case of `CC(C)C[C@@H](C(=O)N1CCC[C@H]1C(=O)N[C@H](CO)C(=O)N[C@@H](CCC(N)=O)C(=O)N[C@@H](Cc1ccccc1)C(=O)N[C@H](C)C(=O)N1Cc2ccccc2C[C@H]1C(=O)N[C@@H](CO)C(=O)O)N(C)C(=O)[C@H](Cc1ccccc1)NC(=O)[C@@H](Cc1ccc(O)cc1)NC(=O)CCc1ccccc1` [YW-111, 3-phenylpropanoyl-(D-Tyr)-Phe-(NMe-Leu)-Pro-(D-Ser)-Gln-Phe-(D-Ala)-Tic-Ser-OH] (Hydrocinnamoyl-[dY]F[NMeL]P[dS]QF[dA][Tic]S-OH), the “Mouse plasma (T1/2 (h))” value (500 ng/mL) was “Very long”.

The values are drawn from patent US12129312B2, “Peptide compound, application thereof and composition containing same” (priority 2017, dated 2024).
